# Measurements as given in US20120053235A1, “Dihydromyricetin as an IKK-beta inhibitor used for treatment of arthritis, cancer and autoimmune conditions, and other diseases or disorders” (HONG KONG BAPTIST UNIVERSITY, priority 2010, published 2012).
# Experiments:
# [1] = system: IKK-α/β phosphorylation in human T lymphocytes; experiment: Measurement of the phosphorylation of IKK α/β (Western blot); type: cell-based; conditions: mediated by PMA/ionomycin or anti-OKT-3/anti-CD28; FIG. 4B
# Method: Human T lymphocytes (4×10^6/well) were pretreated with DMY in different concentrations for 60 minutes and then the cells were stimulated with PMA/ionomycin for 30 minutes.
# The whole-cell lysates were prepared by lysing the harvested T cells with lysis buffer (50 mM Tris-HCl, pH 7.5, 250 mM NaCl, 5 mM EDTA, 1 mM DTT, 1% Triton, 50 mM NaF, 1 mM sodium orthovanadate, 0.5 mM PMSF and 1× protease inhibitor mix, Roche). Protein concentrations were determined by using Bio-Rad Protein assay (Bio-Rad Laboratories, Inc. Hercules, Calif.). Equal amount of nuclear proteins or whole-cell lysates were analyzed by 10% SDS-polyacrylamide gel electrophoresis (SDS-PAGE). After electrophoresis, the proteins were electro-transferred to the nitrocellulose membranes. After proteins were transferred, the membranes were blocked by 5% dried milk for 60 minutes and then washed three times for 5 minutes in washing interval with TBS-T (Tween-20, 0.05%). The membranes were then incubated with phosphorylation-IKK-α/β primary antibodies overnight at 4° C. and then washed three times with TBS-T. Afterwards, the membranes were incubated again with HRP-conjugated secondary antibodies for 60 minutes. The blots were developed using the enhanced chemiluminescence (ECL, Amersham Bioscience).
# human recombinant IKK-β = molecular target: T1, human recombinant IKK-β (Homo sapiens, UniProt O14920); experiment: IKK-β competition assay (dot blot with biotin-DMY); type: binding; conditions: 100 μM biotin-DMY, 0, 1 and 5 folds of parental compound; FIG. 5A
# T1 sequence (O14920 1-756): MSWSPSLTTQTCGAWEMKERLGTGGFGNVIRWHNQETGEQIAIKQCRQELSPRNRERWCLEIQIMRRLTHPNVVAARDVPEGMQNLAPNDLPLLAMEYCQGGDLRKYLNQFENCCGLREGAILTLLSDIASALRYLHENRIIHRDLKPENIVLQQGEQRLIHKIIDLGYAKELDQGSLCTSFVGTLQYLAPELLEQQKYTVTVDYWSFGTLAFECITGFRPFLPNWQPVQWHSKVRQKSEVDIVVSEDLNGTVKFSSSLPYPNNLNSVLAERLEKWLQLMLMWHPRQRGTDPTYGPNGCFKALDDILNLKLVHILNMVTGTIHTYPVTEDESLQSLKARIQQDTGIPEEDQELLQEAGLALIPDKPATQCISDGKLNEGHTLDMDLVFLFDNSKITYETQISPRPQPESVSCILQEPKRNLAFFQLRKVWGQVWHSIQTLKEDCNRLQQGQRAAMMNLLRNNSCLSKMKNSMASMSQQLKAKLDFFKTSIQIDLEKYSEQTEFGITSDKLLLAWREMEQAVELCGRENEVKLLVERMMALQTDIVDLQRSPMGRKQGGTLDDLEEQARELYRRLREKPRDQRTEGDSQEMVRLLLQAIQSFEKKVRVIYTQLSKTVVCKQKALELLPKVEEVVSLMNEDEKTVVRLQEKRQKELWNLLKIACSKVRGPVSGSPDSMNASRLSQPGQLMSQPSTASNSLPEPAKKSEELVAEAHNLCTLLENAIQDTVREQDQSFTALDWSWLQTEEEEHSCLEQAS
# Method: 5 ng of human recombinant IKK-β was incubated with 100 μM of the biotin-DMY in the presence of 0, 1, and 5 folds of concentration of its parental compound. The mixture was dropped on the nitrocellulose membranes, and then detected with streptavidin horseradish peroxidase. The binding signal was then detected by using ECL.
# [2] = system: p38 kinase phosphorylation; experiment: Phosphorylation of MAPKs (Western blot): p38; type: cell-based, human; conditions: PMA plus ionomycin 10 minutes; FIG. 7
# Method: (§1) For determination of the phosphorylation of mitogen-activated protein kinases expression, the cells were stimulated by 20 ng/ml PMA plus […] ionomycin for 10 minutes. The whole-cell lysates were prepared by lysing the harvested T cells with lysis buffer (50 mM Tris-HCl, pH 7.5, 250 mM NaCl, 5 mM EDTA, 1 mM DTT, 1% Triton, 50 mM NaF, 1 mM sodium orthovanadate, 0.5 mM PMSF and 1× protease inhibitor mix, Roche).
# (§2) Protein concentrations were determined by using Bio-Rad Protein assay. Equal amounts of nuclear proteins or whole-cell lysates were analyzed by 10% SDS-PAGE. After electrophoresis, the proteins were electro-transferred to the nitrocellulose membranes. After proteins were transferred, the membranes were blocked by 5% dried milk for 60 minutes and then washed three times for 5 min in each washing interval with TBS-T. The membranes were incubated with corresponding primary antibodies overnight at 4° C. and then washed with three times with TBS-T. Afterwards, the membranes were incubated again with HRP-conjugated secondary antibodies for 60 minutes. The blots were developed using the ECL.
# JNK phosphorylation = experiment: Phosphorylation of MAPKs (Western blot): JNK; type: cell-based, human; conditions: PMA plus ionomycin 10 minutes; FIG. 7
# Method: as §1, §2
# [3] = system: c-Jun nuclear translocation in human T lymphocytes; experiment: c-Jun nuclear translocation assay (Western blot); type: cell-based; conditions: pretreated 1 hour, PMA plus ionomycin 120 minutes
# Method: For c-Jun and c-Fos nuclear translocation assays, the human T lymphocytes (6×10^6/well) were pretreated with DMY for 1 hour, and then stimulated with 20 ng/ml PMA plus […] ionomycin for 120 minutes. After the cells were harvested and washed with PBS twice, the nuclear proteins of cells were then prepared using NucBuster™ Reagents. Afterwards, the washed cells were re-suspended using 60 μl NucBuster™ Reagent 1 per 30 μl of packed cells and processed twice by vortexing for 15 seconds, and followed by the incubation on ice for 5 minutes and second vortexing for 15 seconds, and finally centrifuged at 16000 g for 5 minutes. The supernatants containing cytoplasmic proteins were discarded; the cell pellets were re-suspended in 45 μl of NucBuster Extraction Reagent 2. The same vortexing, icing, and repeated vortexing steps were repeated once to prepare the nuclear proteins of the cells.
# Protein concentrations were determined by using Bio-Rad Protein assay. Equal amounts of nuclear proteins or whole-cell lysates were analyzed by 10% SDS-PAGE. After electrophoresis, the proteins were electro-transferred to the nitrocellulose membranes. […]
# [4] = system: ear edema induced by dinitrofluorobenzene in male ICR mice; experiment: Delay-type hypersensitivity test (DNFB-induced ear edema); type: in vivo
# Method: Male mice were sensitized through topical application of 20 μl of 0.5% (v/v) dinitrofluorobenzene (DNFB) in acetone onto the shaved abdomen on days 1 and 2. Challenge was then preformed in day 6 by applying DNFB (20 μl, 0.5%, v/v) on the left inner and outer ear surfaces of mice. DMY (at doses of 0.5, 1, 2 mg/ear) and DEX (0.025 mg/ear, Sigma-Aldrich) dissolved in acetone was topically applied (20 μl) to the ears at 2nd, 24th, 48th, and 72nd hour after the challenge. The mice were sacrificed by cervical dislocation, and then the same area of the ears was punched from each animal. Spleens and thymuses were isolated and weighted. The ear edema was calculated according to the differences between the weight of the right and left ears. The control group was treated only with DNFB.
# [5] = DTHT mice, topical treatment, FIGS. 9B and C
compound,measurement,setting,value
"O=C1c2c(O)cc(O)cc2O[C@H](c2cc(O)c(O)c(O)c2)[C@H]1O [DMY, dihydromyricetin]",IKK-α/β phosphorylation,[1],inhibit IKK-ca/3 phosphorylation
same,competition with biotin-DMY for binding to IKK-β,human recombinant IKK-β,can compete with biotin-DMY
same,p38 kinase phosphorylation,[2],suppressed
same,JNK phosphorylation,JNK phosphorylation,suppressed
same,nuclear translocation of c-Jun,[3],suppress nuclear translocation
same,body weight,"[4]; DTHT mice, topical treatment",only a small decrease
same,spleen weight,[4]; [5],increase
same,thymus weight,[4]; [5],increase
same,ear edema,"[4]; topical, 0.5, 1, 2 mg/ear at 2nd, 24th, 48th, 72nd hour after challenge, FIG. 9A",significantly and dose-dependently inhibit the ear edema
